Holding throughout (type): in vivo
Test [1] deals with mustard beetle larvae (Phaedon cochleariae). The experiment in a line: Phaedon larvae test. Conditions: active compound concentration 1000 ppm; after 7 days; cabbage leaves dipped. Here is the method:
(§1) Phaedon Larvae Test Solvent: 7 parts by weight of dimethylformamide Emulsifier: 1 part by weight of alkylaryl polyglycol ether To produce a suitable preparation of active compound, 1 part by weight of active compound is mixed with the stated amount of solvent and the stated amount of emulsifier, and the concentrate is diluted with water to the desired concentration. Cabbage leaves (Brassica oleracea) are treated by being dipped into the preparation of the active compound of the desired concentration and are infested with mustard beetle larvae (Phaedon cochleariae) while the leaves are still moist. After the specified period of time, the destruction in % is determined. 100% means that all the beetle larvae have been killed; 0% means that none of the beetle larvae have been killed.

In test [2] the test system is caterpillars of the diamond-back moth (Plutella maculipennis). The experiment in a line: Plutella test. Conditions: active compound concentration 0.1%; after 7 days; cabbage leaves dipped. Here is the method:
as §1, with “Plutella Test Solvent:” for “Phaedon Larvae Test Solvent:”, “preparation of active compound” for “preparation of the active compound”, “infested with caterpillars of the diamond-back moth (Plutella maculipennis) while the” for “infested with mustard beetle larvae (Phaedon cochleariae) while the”, “all the caterpillars have been” for “all the beetle larvae have been”, “of the caterpillars have been” for “of the beetle larvae have been”

For test [3], the system named is larvae of the green rice leafhopper (Nephotettix cincticeps). The experiment in a line: Nephotettix test. As to conditions: active compound concentration 0.1%; after 6 days; rice seedlings dipped. The procedure:
as §1, with “Nephotettix” for “Phaedon Larvae”, “Rice seedlings (Oryzae sativa)” for “Cabbage leaves (Brassica oleracea)”, “with” for “with mustard beetle”, “of the green rice leafhopper (Nephotettix cincticeps)” for “(Phaedon cochleariae)”, “seedlings” for “leaves”, “leafhoppers” for “beetle larvae”

The subject of test [4] is spider mite (Tetranychus urticae). Briefly: Tetranychus test (OP resistant/dip treatment). As to conditions: active compound concentration 0.1%; after 5 days; bean plants dipped. The procedure:
Tetranychus Test (OP Resistant/dip Treatment)
Solvent: 3 parts by weight of dimethylformamide
Emulsifier: 1 part by weight of alkylaryl polyglycol ether
To produce a suitable preparation of active compound, 1 part by weight of active compound is mixed with the stated amount of solvent and the stated amount of emulsifier, and the concentrate is diluted with water to the desired concentration.
Bean plants (Phaseolus vulgaris) heavily infected by all stages of the spider mite (Tetranychus urticae) are dipped into a preparation of the active compound of the desired concentration.
After the specified period of time, the destruction in % is determined. 100% means that all spider mites have been killed; 0% means that none of the spider mites have been killed.

Each structure is given as a SMILES string.

Regarding `Cc1ccc(Cl)c(C)c1C1=C(OC(=O)CC(C)C)C2(CCC(C)CC2)NC1=O` (centres unmarked) [I-1-b-1], the destruction in % in test [1], in test [2] and in test [3] was 100% throughout.
The molecule `Cc1ccc(Cl)c(C)c1C1=C(OC(=O)C(C)(C)C)C2(CCCCC2)OC1=O` [I-2-b-1] yielded a destruction in % in test [4] of 100%.
With `CCOC(=O)OC1=C(c2c(C)ccc(Cl)c2C)C(=O)NC12CCC(C)CC2` (centres unmarked) [I-1-c-1], the destruction in % in test [1] and in test [2] was 100% throughout.
As to `Cc1ccc(Cl)c(C)c1C1=C(O)C2(CCC(C)CC2)NC1=O` (centres unmarked) [I-1-a-1], the destruction in % in test [3] and in test [4] was 100% each time.

These data come from patent US6486343B1, “Substituted phenyl keto enols as pesticides and herbicides” (Bayer Aktiengesellschaft, priority 1996, dated 2002).
